# Experimental data taken from the supplement of paper PMC10307832.
# Legend:
# Test in all cases: relative viability (nuclei count vs DMSO), 5 days (fraction); higher = more cells survive
# EHT 1864 = compound: C1COCCN1CC2=CC(=O)C(=CO2)OCCCCCSC3=C4C=CC(=CC4=NC=C3)C(F)(F)F [EHT 1864]
# How it was run: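 Nuclei counted with MetaXpress define viability as the ratio of treated to vehicle wells, given as a median across plates. The lung cancer cell lines were in 1536-well plates, pinned with five √10-spaced library-drug doses and imaged at 4× after 5 days and Hoechst staining. Plates passed with control CV below 25% and at least one doubling.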
# EHT 1864 + Palbociclib = compound: C1COCCN1CC2=CC(=O)C(=CO2)OCCCCCSC3=C4C=CC(=CC4=NC=C3)C(F)(F)F [EHT 1864] + CC(=O)c1c(C)c2cnc(Nc3ccc(N4CCNCC4)cn3)nc2n(C2CCCC2)c1=O [Palbociclib] (partner 0.5 µM)
# How it was run: (§1)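 Lung cancer cell lines were seeded in 1536-well plates and dosed by pin tool the next day, with either a single drug or a fixed anchor-drug dose combined with five library-drug doses (not always all listed) spaced in √10 steps. Five days later, one step fixed the cells and stained their nuclei (final 0.05% Triton X-100, 1% formaldehyde, 1 ug/ml Hoechst), and nuclei were counted on 4× images. Relative viability is the nuclei count in treated wells divided by the count in vehicle wells, and each value is the median of duplicate plates.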
# EHT 1864 + Foretinib = compound: C1COCCN1CC2=CC(=O)C(=CO2)OCCCCCSC3=C4C=CC(=CC4=NC=C3)C(F)(F)F [EHT 1864] + COc1cc2c(Oc3ccc(NC(=O)C4(C(=O)Nc5ccc(F)cc5)CC4)cc3F)ccnc2cc1OCCCN1CCOCC1 [Foretinib] (partner 0.25 µM)
# How it was run: as §1
# EHT 1864 + OSI-027 = compound: C1COCCN1CC2=CC(=O)C(=CO2)OCCCCCSC3=C4C=CC(=CC4=NC=C3)C(F)(F)F [EHT 1864] + COc1cccc2cc(-c3nc([C@H]4CC[C@H](C(=O)O)CC4)n4ncnc(N)c34)[nH]c12 [OSI-027] (partner 0.5 µM)
# How it was run: as §1
Cell Line,relative viability (EHT 1864; 0.04 µM),relative viability (EHT 1864; 0.1265 µM),relative viability (EHT 1864; 0.4 µM),relative viability (EHT 1864; 1.265 µM),relative viability (EHT 1864; 4 µM),relative viability (EHT 1864 + Palbociclib; first compound 0.04 µM),relative viability (EHT 1864 + Palbociclib; first compound 0.1265 µM),relative viability (EHT 1864 + Palbociclib; first compound 0.4 µM),relative viability (EHT 1864 + Palbociclib; first compound 1.265 µM),relative viability (EHT 1864 + Palbociclib; first compound 4 µM),relative viability (EHT 1864 + Foretinib; first compound 0.04 µM),relative viability (EHT 1864 + Foretinib; first compound 0.1265 µM),relative viability (EHT 1864 + Foretinib; first compound 0.4 µM),relative viability (EHT 1864 + Foretinib; first compound 1.265 µM),relative viability (EHT 1864 + Foretinib; first compound 4 µM),relative viability (EHT 1864 + OSI-027; first compound 0.04 µM),relative viability (EHT 1864 + OSI-027; first compound 0.1265 µM),relative viability (EHT 1864 + OSI-027; first compound 0.4 µM),relative viability (EHT 1864 + OSI-027; first compound 1.265 µM),relative viability (EHT 1864 + OSI-027; first compound 4 µM)
HCC-78,0.968,0.907,0.923,0.922,1.13,0.414,0.568,0.46,0.493,0.478,0.578,0.474,0.538,0.606,0.633,0.373,0.337,0.305,0.37,0.375
HCC-366,1.01,0.804,1.01,1.07,1.06,0.42,0.319,0.348,0.327,0.361,0.914,0.859,0.888,0.891,0.963,0.805,0.603,0.939,0.872,0.935
HCC-827,1.03,0.821,1.07,0.99,1.02,0.57,0.498,0.508,0.473,0.386,0.985,0.965,1.01,0.977,0.928,0.733,0.646,0.732,0.7,0.657
HOP-62,1.05,,1,1.04,1.07,0.453,,0.516,0.438,0.425,1.02,,1.03,0.991,1.13,0.783,,0.851,0.825,0.907
IA-LM,0.925,,0.908,0.764,0.855,,,,,,1.21,,1.09,1.03,0.901,,,,,
LC-2-ad,0.966,0.716,1.03,0.946,0.934,0.481,0.436,0.447,0.46,0.464,0.859,,0.905,1.01,0.962,0.808,,1,0.98,0.788
LCLC-97TM1,1.01,0.762,1.01,0.881,0.903,0.225,0.15,0.183,0.187,0.241,0.848,0.842,0.948,0.939,0.949,0.429,0.583,0.339,0.568,0.517
LCLC-103H,0.987,0.903,1.01,1.12,1.02,0.506,0.393,0.504,0.467,0.498,0.791,0.618,0.736,0.637,0.733,0.454,0.365,0.461,0.44,0.413
LK-2,1.04,0.793,0.979,1.04,0.929,0.67,,0.523,0.639,0.588,1.14,,0.919,0.982,1.35,0.243,0.154,0.227,0.188,0.187
LOU-NH91,0.973,0.909,1.05,1.04,0.892,0.512,0.524,0.53,0.495,0.589,0.956,0.874,0.922,0.96,0.814,0.721,0.572,0.768,0.777,0.66
LU99A,0.883,0.758,0.968,1,0.893,0.438,0.375,0.364,0.396,0.374,0.818,0.796,0.835,0.805,0.749,0.354,0.212,0.327,0.29,0.278
LXF-289,0.961,0.932,0.95,0.961,0.886,0.594,0.572,0.542,0.537,0.581,0.976,0.961,0.947,0.925,0.851,0.848,0.738,0.769,0.775,0.713
NCI-H23,0.909,0.696,0.912,1.02,1.03,0.559,0.429,0.531,0.546,0.492,0.92,0.959,0.889,0.956,0.923,0.511,0.352,0.673,0.523,0.563
NCI-H596,0.947,0.829,1.02,0.929,0.991,,,,,,0.836,0.701,0.752,0.745,0.821,0.716,0.651,0.803,0.572,0.529
NCI-H1299,1.01,0.976,0.964,0.979,0.956,,,,,,1.05,1.09,1.06,1.04,1.07,,,,,
NCI-H1563,0.992,0.887,0.959,0.896,0.882,,,,,,0.962,0.896,0.978,0.857,0.908,0.735,0.796,0.763,0.701,0.699
NCI-H1648,1.2,0.735,0.954,1.02,1.43,0.261,,0.269,0.258,0.278,,,,,,0.273,0.29,0.242,0.23,0.255
NCI-H1703,0.929,0.707,0.939,0.776,0.657,,,,,,0.309,,0.299,0.339,0.382,,,,,
NCI-H1792,0.906,,0.723,0.988,1,0.618,0.694,0.683,0.626,0.742,,,,,,0.67,0.65,0.717,0.689,0.68
